Reference: patent US5593984A, “Cephalosporin derivatives” (Yuhan Corporation, priority 1992, dated 1997)
Converted amounts (≈) assume the structure as drawn.

What was measured:
Assay type in all cases: cell-based
B. subtilis ATCC 6633 = experiment: MIC by agar dilution, B. subtilis ATCC 6633; details: Bacillus subtilis, ATCC6633, 17 h; B. subtilis ATCC 6633; agar dilution, Mueller-Hinton agar; read-out: Minimal Inhibitory Concentration (MIC)
Method in brief: (§1)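 Agar incorporation method in Mueller-Hinton medium, compound in two-fold series; 10^6 CFU/ml spots; read after 17±1 h, 35°-37° C.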

Staph. aureus ATCC 6538P = experiment: MIC by agar dilution, Staph. aureus ATCC 6538P; details: Staphylococcus aureus, ATCC6538P, 17 h; Staph. aureus ATCC 6538P; agar dilution, Mueller-Hinton agar; read-out: Minimal Inhibitory Concentration (MIC)
Method in brief: as §1

Staph. aureus Smith = experiment: MIC by agar dilution, Staph. aureus Smith; details: Staphylococcus aureus, 17 h, Mueller-Hinton agar, read-out: Minimal Inhibitory Concentration (MIC)
Method in brief: as §1

Staph. aureus C-57 = experiment: MIC by agar dilution, Staph. aureus C-57; details: Staphylococcus aureus, C57, 17 h, Mueller-Hinton agar, read-out: Minimal Inhibitory Concentration (MIC)
Method in brief: as §1

Staph. aureus C-5113 = experiment: MIC by agar dilution, Staph. aureus C-5113; details: Staphylococcus aureus, C5113, 17 h, Mueller-Hinton agar, read-out: Minimal Inhibitory Concentration (MIC)
Method in brief: as §1

Staph. aureus C-5216 = experiment: MIC by agar dilution, Staph. aureus C-5216; details: Staphylococcus aureus, C5216, 17 h, Mueller-Hinton agar, read-out: Minimal Inhibitory Concentration (MIC)
Method in brief: as §1

[1] = tested on: S. epidermidis ATCC 12228; experiment: MIC by agar dilution, S. epidermidis ATCC 12228; details: Staphylococcus epidermidis, ATCC12228, 17 h; S. epidermidis ATCC 12228; agar dilution, Mueller-Hinton agar; read-out: Minimal Inhibitory Concentration (MIC)
Method in brief: as §1

Ent. aerogenes IFO 12979 = experiment: MIC by agar dilution, Ent. aerogenes IFO 12979; details: Klebsiella aerogenes, IFO12979, 17 h, Mueller-Hinton agar, read-out: Minimal Inhibitory Concentration (MIC)
Method in brief: as §1

Ent. cloacae IFO 13535 = experiment: MIC by agar dilution, Ent. cloacae IFO 13535; details: Enterobacter cloacae, IFO13535, 17 h; Ent. cloacae IFO 13535; agar dilution, Mueller-Hinton agar; read-out: Minimal Inhibitory Concentration (MIC)
Method in brief: as §1

E. coli NIHJ JC-2 = experiment: MIC by agar dilution, E. coli NIHJ JC-2; details: Escherichia coli, NIHJJC2, 17 h; E. coli NIHJ JC-2; agar dilution, Mueller-Hinton agar; read-out: Minimal Inhibitory Concentration (MIC)
Method in brief: as §1

E. coli No. 29 = experiment: MIC by agar dilution, E. coli No. 29; details: Escherichia coli, 17 h; E. coli No. 29; agar dilution, Mueller-Hinton agar; read-out: Minimal Inhibitory Concentration (MIC)
Method in brief: as §1

E. coli DY-1 = experiment: MIC by agar dilution, E. coli DY-1; details: Escherichia coli, DY1, 17 h; E. coli DY-1; agar dilution, Mueller-Hinton agar; read-out: Minimal Inhibitory Concentration (MIC)
Method in brief: as §1

K. pneumoniae NCTC 9632 = experiment: MIC by agar dilution, K. pneumoniae NCTC 9632; details: Klebsiella pneumoniae, NCTC9632, 17 h; K. pneumoniae NCTC 9632; agar dilution, Mueller-Hinton agar; read-out: Minimal Inhibitory Concentration (MIC)
Method in brief: as §1

M. morganii DY-1 = experiment: MIC by agar dilution, M. morganii DY-1; details: Morganella morganii, DY1, 17 h; M. morganii DY-1; agar dilution, Mueller-Hinton agar; read-out: Minimal Inhibitory Concentration (MIC)
Method in brief: as §1

[2] = tested on: Ps. aeruginosa ATCC 10145; experiment: MIC by agar dilution, Ps. aeruginosa ATCC 10145; details: Pseudomonas aeruginosa, ATCC10145, 17 h, Mueller-Hinton agar, read-out: Minimal Inhibitory Concentration (MIC)
Method in brief: as §1

[3] = tested on: Ps. aeruginosa NCTC 10490; experiment: MIC by agar dilution, Ps. aeruginosa NCTC 10490; details: Pseudomonas aeruginosa, NCTC10490, 17 h, Mueller-Hinton agar, read-out: Minimal Inhibitory Concentration (MIC)
Method in brief: as §1

Ps. aeruginosa DY-2 = experiment: MIC by agar dilution, Ps. aeruginosa DY-2; details: Pseudomonas aeruginosa, DY2, 17 h; Ps. aeruginosa DY-2; agar dilution, Mueller-Hinton agar; read-out: Minimal Inhibitory Concentration (MIC)
Method in brief: as §1

P. vulgaris NCTC 8313 = experiment: MIC by agar dilution, P. vulgaris NCTC 8313; details: Proteus vulgaris, NCTC8313, 17 h; P. vulgaris NCTC 8313; agar dilution, Mueller-Hinton agar; read-out: Minimal Inhibitory Concentration (MIC)
Method in brief: as §1

Prov. stuartii IFO 12930 = experiment: MIC by agar dilution, Prov. stuartii IFO 12930; details: Providencia stuartii, IFO12930, 17 h, Mueller-Hinton agar, read-out: Minimal Inhibitory Concentration (MIC)
Method in brief: as §1

[4] = tested on: Ser. marcescens IFO 12648; experiment: MIC by agar dilution, Ser. marcescens IFO 12648; details: Serratia marcescens, IFO12648, 17 h; Ser. marcescens IFO 12648; agar dilution, Mueller-Hinton agar; read-out: Minimal Inhibitory Concentration (MIC)
Method in brief: as §1

SMILES: Nc1nc(C(=NOCC(=O)O)C(=O)NC2C(=O)N3C(C(=O)[O-])=C(C[n+]4ccn5c(CO)ccc5c4)CSC23)cs1 (stereo not drawn) [Ex. 23, 7-β-[(Z)-2-(2-aminothiazol-4-yl)-2-carboxymethoxyiminoacetamido]-3-(6-hydroxymethylpyrrolo[1,2-a]pyrazinium-2-yl)methyl-3-cephem-4-carboxylate]
- MIC (B. subtilis ATCC 6633): 0.78 µg/mL (≈ 1.33 µM)
- MIC (Staph. aureus ATCC 6538P): 1.56 µg/mL (≈ 2.65 µM)
- MIC (Staph. aureus Smith): 6.25 µg/mL (≈ 10.6 µM)
- MIC (Staph. aureus C-57): 100 µg/mL (≈ 170 µM)
- MIC (Staph. aureus C-5113): 6.25 µg/mL (≈ 10.6 µM)
- MIC (Staph. aureus C-5216): 12.5 µg/mL (≈ 21.3 µM)
- MIC [1]: 0.39 µg/mL (≈ 0.664 µM)
- MIC (Ent. aerogenes IFO 12979): 0.012 µg/mL (≈ 0.0204 µM)
- MIC (Ent. cloacae IFO 13535): 0.2 µg/mL (≈ 0.34 µM)
- MIC (E. coli NIHJ JC-2): 0.025 µg/mL (≈ 0.0425 µM)
- MIC (E. coli No. 29): 0.025 µg/mL (≈ 0.0425 µM)
- MIC (E. coli DY-1): 0.025 µg/mL (≈ 0.0425 µM)
- MIC (K. pneumoniae NCTC 9632): 0.012 µg/mL (≈ 0.0204 µM)
- MIC (M. morganii DY-1): 0.012 µg/mL (≈ 0.0204 µM)
- MIC [2]: 0.78 µg/mL (≈ 1.33 µM)
- MIC [3]: 0.39 µg/mL (≈ 0.664 µM)
- MIC (Ps. aeruginosa DY-2): 3.13 µg/mL (≈ 5.33 µM)
- MIC (P. vulgaris NCTC 8313): ≤ 0.006 µg/mL
- MIC (Prov. stuartii IFO 12930): ≤ 0.006 µg/mL
- MIC [4]: 0.012 µg/mL (≈ 0.0204 µM)

SMILES: CC(C)(ON=C(C(=O)NC1C(=O)N2C(C(=O)[O-])=C(C[n+]3ccn4c(CO)ccc4c3)CSC12)c1csc(N)n1)C(=O)O (stereo not drawn) [Ex. 24, 7-β-[(Z)-2-(2-aminothiazol-4-yl)-2-(2-carboxyprop-2-oxyimino)acetamido]-3-(6hydroxymethylpyrrolo[1,2-a]pyrazinium-2-yl)methyl-3-cephem-4-carboxylate]
- MIC (B. subtilis ATCC 6633): 1.56 µg/mL (≈ 2.53 µM)
- MIC (Staph. aureus ATCC 6538P): 0.39 µg/mL (≈ 0.633 µM)
- MIC (Staph. aureus Smith): 3.13 µg/mL (≈ 5.08 µM)
- MIC (Staph. aureus C-57): 100 µg/mL (≈ 162 µM)
- MIC (Staph. aureus C-5113): 1.56 µg/mL (≈ 2.53 µM)
- MIC (Staph. aureus C-5216): 6.25 µg/mL (≈ 10.2 µM)
- MIC [1]: 0.39 µg/mL (≈ 0.633 µM)
- MIC (Ent. aerogenes IFO 12979): 0.2 µg/mL (≈ 0.325 µM)
- MIC (Ent. cloacae IFO 13535): 6.25 µg/mL (≈ 10.2 µM)
- MIC (E. coli NIHJ JC-2): 3.13 µg/mL (≈ 5.08 µM)
- MIC (E. coli No. 29): 1.56 µg/mL (≈ 2.53 µM)
- MIC (E. coli DY-1): 0.78 µg/mL (≈ 1.27 µM)
- MIC (K. pneumoniae NCTC 9632): 0.78 µg/mL (≈ 1.27 µM)
- MIC (M. morganii DY-1): 0.78 µg/mL (≈ 1.27 µM)
- MIC [2]: 12.5 µg/mL (≈ 20.3 µM)
- MIC [3]: 6.25 µg/mL (≈ 10.2 µM)
- MIC (Ps. aeruginosa DY-2): 25 µg/mL (≈ 40.6 µM)
- MIC (P. vulgaris NCTC 8313): 0.05 µg/mL (≈ 0.0812 µM)
- MIC (Prov. stuartii IFO 12930): 0.39 µg/mL (≈ 0.633 µM)
- MIC [4]: 0.39 µg/mL (≈ 0.633 µM)

SMILES: CON=C(C(=O)NC1C(=O)N2C(C(=O)[O-])=C(C[n+]3ccn4c(C=O)ccc4c3)CSC12)c1csc(N)n1 (stereo not drawn) [Ex. 25, 7-β-[(Z)-2-(2-aminothiazol-4-yl)-2-methoxyiminoacetamido]-3-(6-formylpyrrolo[1,2-a]pyrazinium-2-yl)methyl-3-cephem-4-carboxylate]
- MIC (B. subtilis ATCC 6633): 0.39 µg/mL (≈ 0.72 µM)
- MIC (Staph. aureus ATCC 6538P): 0.78 µg/mL (≈ 1.44 µM)
- MIC (Staph. aureus Smith): 3.13 µg/mL (≈ 5.78 µM)
- MIC (Staph. aureus C-57): 25 µg/mL (≈ 46.2 µM)
- MIC (Staph. aureus C-5113): 3.13 µg/mL (≈ 5.78 µM)
- MIC (Staph. aureus C-5216): 1.56 µg/mL (≈ 2.88 µM)
- MIC [1]: 0.1 µg/mL (≈ 0.185 µM)
- MIC (Ent. aerogenes IFO 12979): 0.025 µg/mL (≈ 0.0462 µM)
- MIC (Ent. cloacae IFO 13535): 0.78 µg/mL (≈ 1.44 µM)
- MIC (E. coli NIHJ JC-2): 0.025 µg/mL (≈ 0.0462 µM)
- MIC (E. coli No. 29): 0.05 µg/mL (≈ 0.0923 µM)
- MIC (E. coli DY-1): 0.05 µg/mL (≈ 0.0923 µM)
- MIC (K. pneumoniae NCTC 9632): 0.05 µg/mL (≈ 0.0923 µM)
- MIC (M. morganii DY-1): 0.05 µg/mL (≈ 0.0923 µM)
- MIC [2]: 3.13 µg/mL (≈ 5.78 µM)
- MIC [3]: 0.39 µg/mL (≈ 0.72 µM)
- MIC (Ps. aeruginosa DY-2): 12.5 µg/mL (≈ 23.1 µM)
- MIC (P. vulgaris NCTC 8313): 0.05 µg/mL (≈ 0.0923 µM)
- MIC (Prov. stuartii IFO 12930): 0.012 µg/mL (≈ 0.0222 µM)
- MIC [4]: 0.05 µg/mL (≈ 0.0923 µM)

SMILES: CCON=C(C(=O)NC1C(=O)N2C(C(=O)[O-])=C(C[n+]3ccn4c(C=O)ccc4c3)CSC12)c1csc(N)n1 (stereo not drawn) [Ex. 26, 7-β-[(Z)-2-(2-aminothiazol-4-yl)2-ethoxyiminoacetamido]-3-(6-formylpyrrolo[1,2-a]pyrazinium-2-yl)methyl-3-cephem-4-carboxylate]
- MIC (B. subtilis ATCC 6633): 0.39 µg/mL (≈ 0.702 µM)
- MIC (Staph. aureus ATCC 6538P): 1.56 µg/mL (≈ 2.81 µM)
- MIC (Staph. aureus Smith): 3.13 µg/mL (≈ 5.63 µM)
- MIC (Staph. aureus C-57): 100 µg/mL (≈ 180 µM)
- MIC (Staph. aureus C-5113): 3.13 µg/mL (≈ 5.63 µM)
- MIC (Staph. aureus C-5216): 3.13 µg/mL (≈ 5.63 µM)
- MIC [1]: 0.1 µg/mL (≈ 0.18 µM)
- MIC (Ent. aerogenes IFO 12979): 0.05 µg/mL (≈ 0.09 µM)
- MIC (Ent. cloacae IFO 13535): 3.13 µg/mL (≈ 5.63 µM)
- MIC (E. coli NIHJ JC-2): 0.1 µg/mL (≈ 0.18 µM)
- MIC (E. coli No. 29): 0.05 µg/mL (≈ 0.09 µM)
- MIC (E. coli DY-1): 0.05 µg/mL (≈ 0.09 µM)
- MIC (K. pneumoniae NCTC 9632): 0.2 µg/mL (≈ 0.36 µM)
- MIC (M. morganii DY-1): 0.2 µg/mL (≈ 0.36 µM)
- MIC [2]: 6.25 µg/mL (≈ 11.2 µM)
- MIC [3]: 1.56 µg/mL (≈ 2.81 µM)
- MIC (Ps. aeruginosa DY-2): 12.5 µg/mL (≈ 22.5 µM)
- MIC (P. vulgaris NCTC 8313): 0.025 µg/mL (≈ 0.045 µM)
- MIC (Prov. stuartii IFO 12930): 0.05 µg/mL (≈ 0.09 µM)
- MIC [4]: 0.1 µg/mL (≈ 0.18 µM)
